Reference: patent US20250032624A1, “SMALL MOLECULE DEGRADATION METHODS FOR TREATING ALS/FTD” (University of Florida Research Foundation, Incorporated, priority 2021, published 2025)

How the values were obtained:
Format in all cases: cell-based, human
[1] = test system: RAN translation, poly(GP); assay: poly(GP) abundance in c9ALS/FTD iPSNs; details: 500 nM, treated 17 days (day 15-32)
Protocol: (§1) Differentiated motor neurons (iPSNs) were derived from the iPSCs listed in the previous section. The differentiation process was based on a previously reported method with slight modifications^33,34. Briefly, iPSCs were plated into Matrigel-coated 100 mm dishes (30-40% confluence). Neuroepithelial induction was performed by replacing the Basal medium with Stage 1 medium [47.5% IMDM (Iscove's Modified Dulbecco's Medium), 47.5% F12 medium, 1% NEAA (Non-Essential Amino Acids) (Life Technologies), 2% B27 (Invitrogen), 1% N2 (Invitrogen), 1% PSA (Penicillin-Streptomycin-Amphotericin), 0.2 μM LDN193189 (Stemgent), 10 μM SB431542 (STEMCELL Technologies) and 3 μM CHIR99021 (Sigma-Aldrich)]. The medium was changed daily for 6 days, after which cells were detached from plates using Accutase (STEMCELL Technologies). Cells were seeded into 6-well plates (1.5×10^6 cells/well) in 3 mL of Stage 2 medium [Stage 1 medium supplemented with 0.1 μM All-trans RA (Sigma-Aldrich) and 1 μM SAG (Cayman Chemicals)]. […]
Meso Scale Discovery (MSD) Technology utilizes electrochemiluminescence to detect biomarkers, such as poly(GP), in protein samples. […] Protein samples were quantified using a Pierce™ Micro BCA Protein Assay Kit (Thermo Scientific).
Poly(GP) levels were measured by an electrochemical luminescent sandwich immunoassay. […]

[2] = test system: C9orf72; assay: C9orf72 transcript RT-qPCR in healthy iPSNs
Protocol: as §1, with “Chemicals)]. Cells were maintained in Stage 2 medium, with daily medium changes, through Day 11 of the differentiation process. On Day 12, the Stage 2 cell medium was removed and replaced with Stage 3 medium [47.5% IMDM, 47.5% F12 medium, 1% NEAA, 2% B27, 1% N2, 1% PSA, 0.1 μM Compound E (Millipore; Catalog #: 565790), 2.5 μM DAPT (Sigma-Aldrich), 0.1 μM db-cAMP (Millipore), 0.5 μM All-trans RA, 0.1 μM SAG, 20 ng/mL ascorbic acid, 10 ng/mL BDNF (STEMCELL Technologies), and 10 ng/mL GDNF (STEMCELL Technologies)]. This medium was replaced every three days until the end of the differentiation process. Typically, a minimum of 18 days is required to produce immature differentiated motor neurons; 30 days of differentiation is the standard for producing mature differentiated spinal neurons. The cells can be maintained in medium for an additional 14-28 days after reaching maturation.” for “Chemicals)].”
For iPSNs cells were differentiated, following the protocol outlined above, until Day 15. […] RNA was extracted as described above and the expression levels of C9orf72 variants was determined by RT-qPCR and normalized to GAPDH. […]

[3] = test system: C9ORF72 protein; assay: Western blot of total C9ORF72 protein in c9ALS/FTD iPSCs
Protocol: Protein samples were prepared as described for analysis by the electrochemical luminescent sandwich immunoassay. Approximately 20 μg total protein was loaded onto a 4-20% Mini-PROTEAN® TGX™ Precast Protein Gel (Bio-Rad) and run at 130 V for 1 hour in Tris-Glycine/SDS running buffer (25 mM Tris base, 190 mM glycine, 0.1% SDS, pH 8.3). Following electrophoresis, the protein was transferred to a PVDF membrane using Tris-Glycine transfer buffer (25 mM Tris base, 190 mM glycine, 20% methanol, pH 8.3). After transfer, the membrane was washed with 1×TBST and blocked in a solution of 5% (w/v) milk in 1×TBST for 30 minutes at room temperature with shaking. […] The membrane was then washed three times with 1×TBST and protein expression was quantified using SuperSignal West Pico Plus Chemiluminescent Substrate (Life Technologies), per the manufacturer's protocol, and film exposure. To quantify β-actin expression, the membrane was washed with 1×TBST and stripped using 1×Stripping Buffer (200 mM glycine, 1% (v/v) Tween-20, 0.1% (w/v) SDS, pH 2.2). […] The membrane was washed with 1×TBST and incubated with 1:5,000 anti-mouse IgG horseradish-peroxidase secondary antibody conjugate (Cell Signaling Technology) in 1×TBST at room temperature for 1 hour. β-actin protein expression was quantified as previously described.

Question: For `CCOC(=O)C1=C(Nc2ccccc2)S/C(=C\c2ccc(OCCOCCOCCOCCNC(=O)CCCOc3ccc4c(c3)c3cc5c(C(=O)N[C@H](C)CN(C)C)nccc5c(C)c3n4C)c(O)c2)C1=O` [ALS Compound Formula I], which “reduction of poly(GP) abundance” value [1] is on record?
Answer: The value was roughly 60%.

Question: What about the “effect on exon 2-3 levels” value [2] of the same compound?
Answer: Its value is “No effect”.

Question: And the “effect on intron 1b levels” value [2]?
Answer: The value was “No effect”.

Question: What about the “effect on intron 1 levels” value [2] of the same compound?
Answer: Its value is “No effect”.

Question: And the “effect on healthy C9ORF72 protein levels” value [3]?
Answer: Its value is “no effect”.
